The target of test [1] is Eukaryotic translation initiation factor 4H (Homo sapiens, UniProt Q15056). In words: eIF4H inhibition in translation initiation, SAR follow-up (AID 435011). The class given is functional.
Test [2] has as its target T1, Polyadenylate-binding protein 1 (Homo sapiens, UniProt P11940). In words: PABP inhibition in translation initiation, SAR follow-up (AID 435018). In kind it is functional.
Test [3] concerns the target T1, Polyadenylate-binding protein 1. In words: SAR analysis for the identification of translation initiation inhibitors (PABP) via an Electrophoretic Mobility Shift Dose Response Assay. [Related pubchem assays (depositor defined):AID2012, AID2014, AID2030]. The class given is functional. (In general: Mobility shift assays separate free from complexed probe on a gel.)

Test [4] has as its target FAD-linked sulfhydryl oxidase ALR (Homo sapiens, UniProt P55789). In words: inhibitors of human ALR sulfhydryl oxidase, dose response, biochemical, H2O2 detection, luminescence, cherry-pick (AID 493248).
Test [5] deals with HEK293. In words: NOD1 signaling inhibitors, primary screen, cell-based, luminescence, uHTS (AID 1578). Conditions: Homo sapiens. In kind it is functional.
The subject of test [6] is HEK293. In words: cells. In kind it is functional, cell-based. Conditions: Homo sapiens.
The subject of test [7] is HEK293. The test is described as follows: cells. The class given is functional, cell-based. To be noted: Homo sapiens. This is another data set of the same source.
The subject of test [8] is HEK293. In words: NOD2 signaling inhibitors in MDP-stimulated cells, cell-based, uHTS, luminescence (AID 2001). In kind it is functional. Conditions: Homo sapiens.
Test [9] concerns the target T2, Tumor necrosis factor (Homo sapiens, UniProt P01375). The test is described as follows: TNFa-triggered NF-kB activation inhibitors, SAR follow-up, cell-based, revised (AID 2337). In kind it is functional.
Test [10] deals with T3, Nucleotide-binding oligomerization domain-containing protein 1 (Homo sapiens, UniProt Q9Y239). The test is described as follows: NOD1 signaling inhibitors, SAR follow-up, revised (AID 2333). In kind it is functional.
T3 sequence (Q9Y239 whole entry, the tested form may be a part): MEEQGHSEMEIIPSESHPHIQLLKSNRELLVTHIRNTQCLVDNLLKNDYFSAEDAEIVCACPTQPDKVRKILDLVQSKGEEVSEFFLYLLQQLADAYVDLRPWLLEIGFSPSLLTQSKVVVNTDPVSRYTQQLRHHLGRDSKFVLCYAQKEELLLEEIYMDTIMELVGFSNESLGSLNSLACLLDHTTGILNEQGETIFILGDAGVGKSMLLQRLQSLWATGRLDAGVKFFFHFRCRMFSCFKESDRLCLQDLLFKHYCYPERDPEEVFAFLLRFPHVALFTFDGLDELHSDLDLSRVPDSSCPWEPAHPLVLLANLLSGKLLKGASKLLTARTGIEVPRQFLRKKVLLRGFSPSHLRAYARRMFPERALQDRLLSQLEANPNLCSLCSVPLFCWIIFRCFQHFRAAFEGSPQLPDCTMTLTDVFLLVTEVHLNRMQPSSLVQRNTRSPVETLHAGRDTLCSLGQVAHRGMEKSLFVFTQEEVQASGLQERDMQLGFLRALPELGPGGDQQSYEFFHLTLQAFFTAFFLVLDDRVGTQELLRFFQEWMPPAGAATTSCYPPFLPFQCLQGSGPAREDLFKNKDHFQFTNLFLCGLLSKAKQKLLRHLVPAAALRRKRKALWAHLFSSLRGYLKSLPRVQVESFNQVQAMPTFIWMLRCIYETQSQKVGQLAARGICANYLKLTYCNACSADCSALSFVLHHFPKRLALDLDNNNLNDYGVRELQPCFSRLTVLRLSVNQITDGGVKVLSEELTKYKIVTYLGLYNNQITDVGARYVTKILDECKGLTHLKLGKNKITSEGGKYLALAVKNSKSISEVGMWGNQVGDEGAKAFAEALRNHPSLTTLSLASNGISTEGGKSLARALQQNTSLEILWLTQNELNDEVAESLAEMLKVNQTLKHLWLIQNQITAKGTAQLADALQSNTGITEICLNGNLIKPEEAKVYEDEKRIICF
For test [11], the system named is HEK293. The test is described as follows: cells. To be noted: Homo sapiens.
Test [12] deals with T3, Nucleotide-binding oligomerization domain-containing protein 1. The test is described as follows: SAR analysis of compounds that inhibit NOD1 - Set 3. [Related pubchem assays (depositor defined):AID1566, AID1575, AID1578, AID1849, AID1852, AID2333, AID2335, AID2466]. The class given is functional.
For test [13], the target named is T2, Tumor necrosis factor. In words: TNFa-triggered NF-kB activation inhibitors, SAR follow-up, cell-based, set 3 (AID 2801). The class given is functional.
Test [14] concerns HEK293. In words: SAR analysis of compounds that are cytotoxic to HEK293 - Set 3. [Related pubchem assays (depositor defined):AID1575, AID1578, AID1848, AID1849, AID2001, AID2333, AID2334, AID2335, AID2337, AID2469]. In kind it is functional, cell-based. To be noted: Homo sapiens.
Test [15] concerns the target Nucleotide-binding oligomerization domain-containing protein 2 (Homo sapiens, UniProt Q9HC29). In words: NOD2 signaling inhibitors, analog potency, SAR follow-up, cell-based, set 3 (AID 2799). In kind it is functional.
For test [16], the target named is Intestinal-type alkaline phosphatase (Homo sapiens, UniProt P09923). The test is described as follows: activation of human intestinal alkaline phosphatase – biochemical, dose response (AID 488873). The class given is functional.
Chain of Intestinal-type alkaline phosphatase (Homo sapiens, UniProt P09923) (P09923 whole entry): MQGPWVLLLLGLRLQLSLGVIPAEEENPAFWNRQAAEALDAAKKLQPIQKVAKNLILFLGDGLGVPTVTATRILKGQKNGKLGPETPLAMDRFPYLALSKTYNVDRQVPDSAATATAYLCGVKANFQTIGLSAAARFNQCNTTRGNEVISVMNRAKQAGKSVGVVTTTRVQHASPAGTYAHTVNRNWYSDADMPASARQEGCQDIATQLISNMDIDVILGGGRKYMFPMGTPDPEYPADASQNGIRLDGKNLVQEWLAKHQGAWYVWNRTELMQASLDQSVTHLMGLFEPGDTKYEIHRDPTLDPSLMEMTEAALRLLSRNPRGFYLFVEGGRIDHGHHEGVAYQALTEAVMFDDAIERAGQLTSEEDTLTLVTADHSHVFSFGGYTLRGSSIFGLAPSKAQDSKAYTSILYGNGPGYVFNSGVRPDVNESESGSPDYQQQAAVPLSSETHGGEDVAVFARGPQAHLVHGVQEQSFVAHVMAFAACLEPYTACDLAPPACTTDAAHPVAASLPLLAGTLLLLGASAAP
Test [17] concerns the target Intestinal-type alkaline phosphatase (Mus musculus, UniProt P24822). In words: PubChem AID 488785. The class given is functional.
Test [18] addresses T4, Alkaline phosphatase, tissue-nonspecific isozyme (Homo sapiens, UniProt P05186).
T4 sequence (P05186 whole entry): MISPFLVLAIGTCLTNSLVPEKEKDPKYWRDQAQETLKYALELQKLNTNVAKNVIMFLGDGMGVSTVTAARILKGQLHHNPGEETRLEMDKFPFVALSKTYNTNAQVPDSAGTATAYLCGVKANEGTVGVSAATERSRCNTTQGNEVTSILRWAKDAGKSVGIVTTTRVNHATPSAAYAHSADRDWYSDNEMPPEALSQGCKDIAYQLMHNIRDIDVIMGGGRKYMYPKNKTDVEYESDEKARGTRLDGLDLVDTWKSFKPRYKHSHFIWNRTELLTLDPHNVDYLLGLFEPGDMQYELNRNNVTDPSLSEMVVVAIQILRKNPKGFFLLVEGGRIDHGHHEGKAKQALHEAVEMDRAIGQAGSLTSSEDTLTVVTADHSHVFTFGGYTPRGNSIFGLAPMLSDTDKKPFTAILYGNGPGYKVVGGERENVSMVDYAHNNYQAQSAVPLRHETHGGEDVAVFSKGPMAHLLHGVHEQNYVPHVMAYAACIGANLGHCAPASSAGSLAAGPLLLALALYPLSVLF
In words: TNAP enzyme inhibition by screening hits, dose response, selectivity assay for mouse IAP inhibitor project, biochemical, human TNAP, uHTS hits (AID 488906). In kind it is functional.

Test [19] is described as follows: Artemis endonuclease inhibitor potency, dose response, biochemical, fluorescence intensity (AID 720701).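 Also: Artemis endonuclease enzyme.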 The class given is functional.

The source made the active and inactive calls. Rule as the data show it, for most assays here: actives have a measured IC50 and inactives only a lower limit.

T2 sequence (P01375 whole entry, the tested form may be a part): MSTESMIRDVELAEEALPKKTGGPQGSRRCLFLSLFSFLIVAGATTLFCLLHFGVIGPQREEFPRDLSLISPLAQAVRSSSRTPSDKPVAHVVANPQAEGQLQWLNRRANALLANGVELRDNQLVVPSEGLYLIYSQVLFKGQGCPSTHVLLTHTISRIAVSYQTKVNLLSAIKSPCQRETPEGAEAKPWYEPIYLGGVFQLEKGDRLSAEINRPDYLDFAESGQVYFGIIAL
T1 sequence (P11940 whole entry): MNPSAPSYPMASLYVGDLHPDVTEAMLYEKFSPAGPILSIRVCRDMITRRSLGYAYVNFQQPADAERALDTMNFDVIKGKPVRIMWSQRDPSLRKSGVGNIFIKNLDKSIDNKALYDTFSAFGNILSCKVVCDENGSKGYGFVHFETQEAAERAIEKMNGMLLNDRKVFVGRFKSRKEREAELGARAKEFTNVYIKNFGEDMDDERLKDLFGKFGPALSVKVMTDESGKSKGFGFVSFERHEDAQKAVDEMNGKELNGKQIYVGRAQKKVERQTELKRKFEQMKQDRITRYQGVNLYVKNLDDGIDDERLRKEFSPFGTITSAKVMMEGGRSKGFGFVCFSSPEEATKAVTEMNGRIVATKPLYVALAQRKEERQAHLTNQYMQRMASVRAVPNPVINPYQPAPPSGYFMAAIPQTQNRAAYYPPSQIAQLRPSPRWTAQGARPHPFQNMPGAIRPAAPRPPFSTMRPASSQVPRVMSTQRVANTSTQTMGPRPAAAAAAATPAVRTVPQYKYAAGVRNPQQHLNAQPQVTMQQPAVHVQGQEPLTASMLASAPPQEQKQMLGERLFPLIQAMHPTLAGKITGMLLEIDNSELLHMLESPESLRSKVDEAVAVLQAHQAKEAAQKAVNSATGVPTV
Chain of Intestinal-type alkaline phosphatase (Mus musculus, UniProt P24822) (P24822 whole entry): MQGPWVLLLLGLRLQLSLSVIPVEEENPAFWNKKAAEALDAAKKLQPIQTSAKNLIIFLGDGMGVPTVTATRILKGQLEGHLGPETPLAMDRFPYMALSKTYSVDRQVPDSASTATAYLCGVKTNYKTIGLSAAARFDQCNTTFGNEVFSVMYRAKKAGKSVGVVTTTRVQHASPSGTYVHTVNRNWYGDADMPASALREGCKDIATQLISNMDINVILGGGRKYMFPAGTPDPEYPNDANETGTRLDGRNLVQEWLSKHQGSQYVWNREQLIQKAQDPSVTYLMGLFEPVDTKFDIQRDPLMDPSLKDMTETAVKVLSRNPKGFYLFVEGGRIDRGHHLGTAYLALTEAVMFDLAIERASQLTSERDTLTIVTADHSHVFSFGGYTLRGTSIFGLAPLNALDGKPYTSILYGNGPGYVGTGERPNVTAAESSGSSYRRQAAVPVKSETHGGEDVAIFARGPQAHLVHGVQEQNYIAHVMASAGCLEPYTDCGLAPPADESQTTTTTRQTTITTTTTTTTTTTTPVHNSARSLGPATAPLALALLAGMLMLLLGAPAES
Chain of FAD-linked sulfhydryl oxidase ALR (P55789 whole entry): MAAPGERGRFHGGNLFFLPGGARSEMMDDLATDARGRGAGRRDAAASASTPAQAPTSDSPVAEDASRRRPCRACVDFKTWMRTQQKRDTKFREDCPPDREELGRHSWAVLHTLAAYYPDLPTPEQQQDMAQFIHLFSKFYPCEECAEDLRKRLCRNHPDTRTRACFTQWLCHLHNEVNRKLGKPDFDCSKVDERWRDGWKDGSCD
Chain of Nucleotide-binding oligomerization domain-containing protein 2 (Q9HC29 whole entry, the tested form may be a part): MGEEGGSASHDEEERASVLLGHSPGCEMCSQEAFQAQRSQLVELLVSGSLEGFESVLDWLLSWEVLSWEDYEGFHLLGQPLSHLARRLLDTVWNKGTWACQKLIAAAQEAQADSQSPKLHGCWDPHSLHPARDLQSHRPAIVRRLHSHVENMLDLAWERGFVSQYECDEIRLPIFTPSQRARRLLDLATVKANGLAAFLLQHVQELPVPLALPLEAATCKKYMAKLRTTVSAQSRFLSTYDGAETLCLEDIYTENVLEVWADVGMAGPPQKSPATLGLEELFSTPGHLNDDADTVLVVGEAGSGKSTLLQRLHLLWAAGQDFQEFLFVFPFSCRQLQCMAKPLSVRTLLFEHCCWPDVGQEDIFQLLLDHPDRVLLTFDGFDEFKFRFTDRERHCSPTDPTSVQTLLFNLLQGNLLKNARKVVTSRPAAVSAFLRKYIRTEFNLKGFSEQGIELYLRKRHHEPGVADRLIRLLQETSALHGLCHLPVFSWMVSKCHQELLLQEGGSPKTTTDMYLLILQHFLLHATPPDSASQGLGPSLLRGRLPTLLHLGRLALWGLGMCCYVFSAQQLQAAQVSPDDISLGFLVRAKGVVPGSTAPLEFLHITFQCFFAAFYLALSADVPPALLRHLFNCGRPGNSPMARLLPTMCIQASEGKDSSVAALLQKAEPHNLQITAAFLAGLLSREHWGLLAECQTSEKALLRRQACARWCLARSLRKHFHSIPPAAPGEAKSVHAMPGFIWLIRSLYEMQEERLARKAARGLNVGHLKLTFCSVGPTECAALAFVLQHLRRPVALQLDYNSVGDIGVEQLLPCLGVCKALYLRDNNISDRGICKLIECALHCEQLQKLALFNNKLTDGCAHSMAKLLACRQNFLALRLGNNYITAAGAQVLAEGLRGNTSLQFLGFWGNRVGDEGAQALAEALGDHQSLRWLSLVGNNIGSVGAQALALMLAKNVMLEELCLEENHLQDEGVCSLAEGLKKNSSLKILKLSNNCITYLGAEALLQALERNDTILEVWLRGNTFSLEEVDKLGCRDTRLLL

With `COc1ccc(N2Cc3cccc(C(=O)NC(C)CCc4ccco4)c3C2=O)cc1` (centres undefined), the IC50 – broadly, the concentration that gives 50% inhibition – in [1] is 5.42 µM (active); in test [2] it was > 100 µM (inactive); in test [3], 10 µM (active). The AC50 (in general, the concentration giving half of the maximal activity seen) in test [4] is 1.06 µM (active).

For `O=C(Nc1sc2c(c1C(=O)O)CCCC2)c1ccc(Cl)cc1`, the EC50 (commonly the concentration giving half of the maximal effect) with HEK293 [5] is 6.58 µM (active). The IC50 in the test with HEK293 [6] was > 20 µM (inactive); in the test on HEK293 [7] it was > 20 µM (inactive); in the test with HEK293 [8], 16 µM (inactive); on Tumor necrosis factor [9], 13.4 µM (active); in test [10], 2.86 µM (active); in the test with HEK293 [11], > 20 µM (inactive).

On to `CN(C(=O)c1ccccc1)C(c1ccccc1)c1c[nH]c2ccccc12` (centres undefined), for which the IC50 is > 20 µM (inactive) in test [12], > 20 µM (inactive) at Tumor necrosis factor [13], > 20 µM (inactive) in the test with HEK293 [14] and 12.4 µM (active) in test [15].

On to `O=C(O)CC(C(=O)O)N1C(=O)/C(=C/c2ccc(-c3nc4ccccc4s3)o2)SC1=S` (centres undefined), for which the EC50 in test [16] was > 100 µM (inactive). The IC50 in [17] was 13.4 µM (active); in test [18] it was 24.3 µM (active); in test [19], > 20 µM (inactive).
